How the values were obtained:
Mouse Psoriasiform Model = assay: Mouse psoriasiform model (imiquimod / Aldara-induced skin inflammation); format: in vivo, Balb/c mice; settings: topical, 3% in acetone, once a day 2 h before Aldara, FIG. 4
Method: Example 2: Protocol for Testing an NLRP3 Antagonist (N-((1,2,3,5,6,7-hexahydro-s-indacen-4-yl)carbamoyl)-4-(2-hydroxypropan-2-yl)furan-2-sulfonamide, Compound 3, Also Known as MCC950) on a Mouse Psoriasiform Model
The treatment protocol consists of a daily topical application of Aldara® (3.18 mg of imiquimod) for 7 days to the shaved skin of Balb/c mice. The NLRP3 antagonist was dissolved in 3% acetone and was applied once a day 2 h before the treatment with Aldara®. The clinical score is an overall classification resulting from the sum of the erythema, edema and desquamation scores, on the basis of the overall evaluation by the physician of the Lattice system, known as LS PGA (J Am Acad Dermatol. 2004 October; 51(4):563-9).
Indeed, imiquimod induces inflamed scaly skin lesions resembling the psoriasis plaque. These lesions are associated with increased epidermal proliferation, abnormal differentiation, an epidermal accumulation of neutrophils in […], neoangiogenesis and infiltrates consisting of CD4+ T cells, of CD11c (+) dendritic cells and of plasmacytoid dendritic cells. Imiquimod induces an epidermal expression of IL-23, IL-17A and IL-17F, and also an increase in Th17 spleen cells. […]

[1] = system: Mouse Atopic Dermatitis Model; assay: Mouse atopic dermatitis model (epicutaneous sensitization with Dermatophagoides pteronyssinus allergen); format: in vivo, Balb/c mice; settings: for Insensible water loss (IWL) decrease / Thickness of the epidermis (epidermal acanthosis) change / Inflammatory score reduction: day 51; for Insensible water loss (IWL) decrease: FIG. 1; for Thickness of the epidermis (epidermal acanthosis) change: FIG. 2; for Inflammatory score reduction: FIG. 3
Method: Example 1: Protocol for Testing an NLRP3 Antagonist (N-((1,2,3,5,6,7-hexahydro-s-indacen-4-yl)carbamoyl)-4-(2-hydroxypropan-2-yl)furan-2-sulfonamide, Compound 3, Also Known as MCC950) on a Mouse Atopic Dermatitis Model
Female Balb/c mice were treated with the allergen Dermatophagoides pteronyssinus (DERP) in 3 cycles of epicutaneous sensitization (per patch) on the abdominal skin with 2 patches applied twice a week, followed by 2 weeks of rest, for 7 weeks. Topical treatments with an NLRP3 antagonist (compound 3, 2% in an acetone carrier) or a corticosteroid (0.1% betamethasone valerate, used as a control) were carried out 3 times over the course of the third and final week of sensitization (on days 44, 47 and 50).
An inflammatory reaction was induced by epicutaneous sensitization with patches impregnated with 100 μg of allergen in a sterile saline solution (Dermatophagoides pteronyssinus or DERP) or with a carrier applied to the abdominal skin 24 hours after shaving and left for three periods of 1 week (with a change of patch in the middle of the week), with a gap of 2 weeks between applications.
For the systemic route, the NLRP3 antagonist was administered intravenously, 200 μl, 2.5 mg/ml once a day, for the final series of epicutaneous sensitization with the allergen (D44 to D50).
For the topical administration, the test antagonist (compound 3) was formulated at 2% in an acetone carrier, applied to the sensitized skin 2 hours before the DERP patches were put in place. The topical treatments with an NLRP3 antagonist or a corticosteroid (used as a control) were carried out 3 times over the course of the third and final week of sensitization (on days 44, 47 and 50). At the time the final patch was removed (day 51), the skin and blood samples were collected.
The IWL is measured using a Tewameter on an animal the day before day 51. The Tewameter® probe measures the gradient of density of the evaporation of water from the skin indirectly by means of two sensors (temperature and relative humidity) inside a hollow cylinder. A microprocessor analyzes the values and expresses the evaporation rate in g/h/m^2.
The thickness of the epidermis is measured by histological morphometric analyses on sections 6 μm thick, stained with hematoxylin eosin (HE), originating from skin samples fixed beforehand in […].
The inflammatory score is defined visually on the basis of predefined dryness, skin rash, baldness, excoriation and lichenification scales. The mean of the five scores given to one individual mouse on a given day indicates the clinical score given on the specific day.

[2] = systemic route (intravenous, 200 μl, 2.5 mg/ml once a day, D44 to D50)
[3] = topical route (2% in acetone carrier, days 44, 47 and 50)

## CC(C)(O)c1coc(S(=O)(=O)NC(=O)Nc2c3c(cc4c2CCC4)CCC3)c1 [Compound 3, N-((1,2,3,5,6,7-hexahydro-s-indacen-4-yl)carbamoyl)-4-(2-hydroxypropan-2-yl)furan-2-sulfonamide]
Mouse Psoriasiform Model; day 4
  Reduction of imiquimod-induced skin inflammation on the basis of the clinical score: −36%
Mouse Psoriasiform Model; day 5
  Reduction of imiquimod-induced skin inflammation on the basis of the clinical score: −27%
[1]; [2]
  Insensible water loss (IWL) decrease: −60%
  Thickness of the epidermis (epidermal acanthosis) change: −38%
  Inflammatory score reduction: −62%
[1]; [3]
  Insensible water loss (IWL) decrease: −42%
  Thickness of the epidermis (epidermal acanthosis) change: −24%
  Inflammatory score reduction: −39%
[1]; versus 0.1% betamethasone valerate, the corticosteroid control
  Efficacy compared with corticosteroid treatment: quite close to the treatment with corticosteroids

Reference: US10857123B2, “NLRP3 inhibitors for the treatment of inflammatory skin disorders” (GALDERMA RESEARCH & DEVELOPMENT, priority 2016, dated 2020)
